# Values quoted from earlier work in patent publication US20230310447A1, “METHODS OF TREATING AGE-RELATED COGNITIVE DECLINE” (Woolsey Pharmaceuticals, Inc., priority 2020, published 2023).
# Assays:
# memory in aging rats = conditions: eighteen-month old rats; 0.1875 or 0.3750 mg per day, single daily injection; radial maze
# [1] = 1-hydroxy (M3) metabolite, in vivo; Shibuya 2001
half-life [1],Compound,working memory (memory in aging rats)
–,hydroxyfasudil,improvements in working memory
about 8 hours,O=S(=O)(c1cccc2c(O)nccc12)N1CCCNCC1 [hydroxyfasudil],–
